Assay results published in PubChem BioAssay (NCI).
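Growth conditions: 96-well plates. Treatment: test compound, 48 hours, 5 concentrations. Analysis: linear interpolation between bracketing concentrations; unreached endpoints set to highest concentration. GI50 is the concentration that inhibits growth by half. TGI: total growth inhibition.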

What was measured:
Assay in all cases: NCI anticancer screen, dose series, 48 h
786-0 renal = test system: 786-0 renal
A549 NSCLC = test system: A549 NSCLC
ACHN renal = test system: ACHN renal
COLO 205 colon = test system: COLO 205 colon
HCT-116 colon = test system: HCT-116 colon
HCT-15 colon = test system: HCT-15 colon
HS 578T breast = test system: HS 578T breast
K-562 leukemia = test system: K-562 leukemia
M14 melanoma = test system: M14 melanoma
MDA-MB-231 breast = test system: MDA-MB-231 breast
MDA-MB-435 = test system: MDA-MB-435
MDA-N = test system: MDA-N
NCI-H23 lung = test system: NCI-H23 lung
NCI-H460 lung = test system: NCI-H460 lung
NCI/ADR-RES ovarian = test system: NCI/ADR-RES ovarian
OVCAR-5 ovarian = test system: OVCAR-5 ovarian
OVCAR-8 ovarian = test system: OVCAR-8 ovarian
PC-3 prostate = test system: PC-3 prostate
SF-295 CNS = test system: SF-295 CNS
SF-539 CNS = test system: SF-539 CNS
SK-MEL-28 melanoma = test system: SK-MEL-28 melanoma
SK-OV-3 ovarian = test system: SK-OV-3 ovarian
SN12C renal = test system: SN12C renal
SNB-19 CNS = test system: SNB-19 CNS
SW-620 colon = test system: SW-620 colon
UACC-257 melanoma = test system: UACC-257 melanoma
UACC-62 melanoma = test system: UACC-62 melanoma
UO-31 renal = test system: UO-31 renal
A498 renal = test system: A498 renal
BT-549 breast = test system: BT-549 breast
CAKI-1 renal = test system: CAKI-1 renal
CCRF-CEM leukemia = test system: CCRF-CEM leukemia
DU-145 prostate = test system: DU-145 prostate
EKVX NSCLC = test system: EKVX NSCLC
HCC-2998 colon = test system: HCC-2998 colon
HL-60(TB) leukemia = test system: HL-60(TB) leukemia
HOP-62 NSCLC = test system: HOP-62 NSCLC
HOP-92 NSCLC = test system: HOP-92 NSCLC
HT29 colon = test system: HT29 colon
IGROV1 ovarian = test system: IGROV1 ovarian
KM12 colon = test system: KM12 colon
LOX IMVI melanoma = test system: LOX IMVI melanoma
MALME-3M melanoma = test system: MALME-3M melanoma
MCF7 breast = test system: MCF7 breast
MOLT-4 leukemia = test system: MOLT-4 leukemia
NCI-H226 lung = test system: NCI-H226 lung
NCI-H522 lung = test system: NCI-H522 lung
OVCAR-3 ovarian = test system: OVCAR-3 ovarian
OVCAR-4 ovarian = test system: OVCAR-4 ovarian
RPMI-8226 leukemia = test system: RPMI-8226 leukemia
RXF 393 renal = test system: RXF 393 renal
SF-268 CNS = test system: SF-268 CNS
SK-MEL-2 melanoma = test system: SK-MEL-2 melanoma
SK-MEL-5 melanoma = test system: SK-MEL-5 melanoma
SNB-75 CNS = test system: SNB-75 CNS
SR leukemia = test system: SR leukemia
T-47D breast = test system: T-47D breast
TK-10 renal = test system: TK-10 renal
U251 CNS = test system: U251 CNS

## O=C(CBr)N1CCC2(CC1)SSC1(CCN(C(=O)CBr)CC1)S2
786-0 renal
  TGI: 1.81 µM
A549 NSCLC
  TGI: 3.95 µM
ACHN renal
  TGI: 2.87 µM
COLO 205 colon
  TGI: 1.13 µM
HCT-116 colon
  TGI: 1.29 µM
HCT-15 colon
  TGI: 2.96 µM
HS 578T breast
  TGI: 4.29 µM
K-562 leukemia
  TGI: > 100 µM
M14 melanoma
  TGI: 2.86 µM
MDA-MB-231 breast
  TGI: 4.57 µM
MDA-MB-435
  TGI: 4.48 µM
MDA-N
  TGI: 2.81 µM
NCI-H23 lung
  TGI: 3.13 µM
NCI-H460 lung
  TGI: 3.48 µM
NCI/ADR-RES ovarian
  TGI: 4.32 µM
OVCAR-5 ovarian
  TGI: 3.03 µM
OVCAR-8 ovarian
  TGI: 4.62 µM
PC-3 prostate
  TGI: 3.38 µM
SF-295 CNS
  TGI: 3.51 µM
SF-539 CNS
  TGI: 3.09 µM
SK-MEL-28 melanoma
  TGI: 4.55 µM
SK-OV-3 ovarian
  TGI: 2.71 µM
SN12C renal
  TGI: 3.71 µM
SNB-19 CNS
  TGI: 3.48 µM
SW-620 colon
  TGI: 1.21 µM
UACC-257 melanoma
  TGI: 12.9 µM
UACC-62 melanoma
  TGI: 2.96 µM
UO-31 renal
  TGI: 2.01 µM

## C=CCn1c(=O)c2cnc(Nc3ccc(N4CCN(C)CC4)cc3)nc2n1-c1ccc2c(n1)[C@@](O)(CC)CC2
786-0 renal
  GI50: 0.271 µM
  TGI: 12.2 µM
A498 renal
  GI50: 0.161 µM
  TGI: 3.62 µM
A549 NSCLC
  GI50: 2 µM
  TGI: 35.8 µM
ACHN renal
  GI50: 0.161 µM
  TGI: 36.8 µM
BT-549 breast
  GI50: 0.287 µM
  TGI: 3.46 µM
CAKI-1 renal
  GI50: 0.113 µM
  TGI: 20.5 µM
CCRF-CEM leukemia
  GI50: 0.2 µM
  TGI: 1.81 µM
COLO 205 colon
  GI50: 0.336 µM
  TGI: 2.57 µM
DU-145 prostate
  GI50: 0.939 µM
  TGI: 35.3 µM
EKVX NSCLC
  GI50: 1.12 µM
  TGI: 22.5 µM
HCC-2998 colon
  GI50: 0.593 µM
  TGI: 3.82 µM
HCT-116 colon
  GI50: 0.415 µM
  TGI: 16 µM
HCT-15 colon
  GI50: 0.949 µM
  TGI: 13.8 µM
HL-60(TB) leukemia
  GI50: 0.189 µM
  TGI: 1.3 µM
HOP-62 NSCLC
  GI50: 1.29 µM
  TGI: 13.8 µM
HOP-92 NSCLC
  GI50: 0.494 µM
  TGI: 30.5 µM
HS 578T breast
  GI50: 0.755 µM
  TGI: 12.4 µM
HT29 colon
  GI50: 0.261 µM
  TGI: 4.49 µM
IGROV1 ovarian
  GI50: 0.212 µM
  TGI: 13.6 µM
K-562 leukemia
  GI50: 0.325 µM
  TGI: > 34.8 µM
KM12 colon
  GI50: 0.391 µM
  TGI: 3.82 µM
LOX IMVI melanoma
  GI50: 1.02 µM
  TGI: 9.89 µM
M14 melanoma
  GI50: 0.225 µM
  TGI: 5.81 µM
MALME-3M melanoma
  GI50: 0.576 µM
  TGI: 12 µM
MCF7 breast
  GI50: 0.344 µM
  TGI: > 42.8 µM
MDA-MB-231 breast
  GI50: 0.558 µM
  TGI: 4.19 µM
MDA-MB-435
  GI50: 0.226 µM
  TGI: 0.795 µM
MOLT-4 leukemia
  GI50: 0.296 µM
  TGI: 1.37 µM
NCI-H226 lung
  GI50: 1.94 µM
  TGI: 15.2 µM
NCI-H23 lung
  GI50: 0.25 µM
  TGI: 1.42 µM
NCI-H460 lung
  GI50: 1.94 µM
  TGI: 16.7 µM
NCI-H522 lung
  GI50: 0.221 µM
  TGI: 0.888 µM
NCI/ADR-RES ovarian
  GI50: 5.69 µM
  TGI: 33.5 µM
OVCAR-3 ovarian
  GI50: 0.333 µM
  TGI: 2.86 µM
OVCAR-4 ovarian
  GI50: 1.89 µM
  TGI: > 39.9 µM
OVCAR-5 ovarian
  GI50: 1.2 µM
  TGI: 19.5 µM
OVCAR-8 ovarian
  GI50: 0.573 µM
  TGI: 5.62 µM
PC-3 prostate
  GI50: 2.24 µM
  TGI: > 100 µM
RPMI-8226 leukemia
  GI50: 1.74 µM
  TGI: 14.5 µM
RXF 393 renal
  GI50: 0.131 µM
  TGI: 0.686 µM
SF-268 CNS
  GI50: 2.07 µM
  TGI: > 63.5 µM
SF-295 CNS
  GI50: 0.742 µM
  TGI: 18.7 µM
SF-539 CNS
  GI50: 0.175 µM
  TGI: 0.68 µM
SK-MEL-2 melanoma
  GI50: 0.332 µM
  TGI: 2.44 µM
SK-MEL-28 melanoma
  GI50: 3.68 µM
  TGI: 21.6 µM
SK-MEL-5 melanoma
  GI50: 0.3 µM
  TGI: 1.27 µM
SK-OV-3 ovarian
  GI50: 0.284 µM
  TGI: 4.48 µM
SN12C renal
  GI50: 0.507 µM
  TGI: > 55.7 µM
SNB-19 CNS
  GI50: 1.85 µM
  TGI: > 100 µM
SNB-75 CNS
  GI50: 1.07 µM
  TGI: 13.7 µM
SR leukemia
  GI50: 0.193 µM
  TGI: 1.38 µM
SW-620 colon
  GI50: 0.525 µM
  TGI: > 100 µM
T-47D breast
  GI50: 2.17 µM
  TGI: > 80.7 µM
TK-10 renal
  GI50: 1.41 µM
  TGI: 49.2 µM
U251 CNS
  GI50: 1.11 µM
  TGI: 35.7 µM
UACC-257 melanoma
  GI50: 1.75 µM
  TGI: 18.1 µM
UACC-62 melanoma
  GI50: 0.504 µM
  TGI: 16.4 µM
UO-31 renal
  GI50: 0.36 µM
  TGI: 6.96 µM

## CCN(CC)c1ccc2c(c1)OC(=O)C(c1nnc(-c3ccc([N+](=O)[O-])cc3)o1)C2 (centres undefined)
786-0 renal
  TGI: > 100 µM
A498 renal
  TGI: > 100 µM
A549 NSCLC
  TGI: > 100 µM
ACHN renal
  TGI: > 100 µM
BT-549 breast
  TGI: > 100 µM
CAKI-1 renal
  TGI: > 100 µM
CCRF-CEM leukemia
  TGI: > 100 µM
COLO 205 colon
  TGI: > 100 µM
DU-145 prostate
  TGI: > 100 µM
EKVX NSCLC
  TGI: > 100 µM
HCC-2998 colon
  TGI: > 100 µM
HCT-116 colon
  TGI: > 100 µM
HCT-15 colon
  TGI: > 100 µM
HL-60(TB) leukemia
  TGI: > 100 µM
HOP-62 NSCLC
  TGI: > 100 µM
HOP-92 NSCLC
  TGI: > 100 µM
HS 578T breast
  TGI: > 100 µM
HT29 colon
  TGI: > 100 µM
IGROV1 ovarian
  TGI: > 100 µM
K-562 leukemia
  TGI: > 100 µM
KM12 colon
  TGI: > 100 µM
LOX IMVI melanoma
  TGI: > 100 µM
M14 melanoma
  TGI: > 100 µM
MALME-3M melanoma
  TGI: > 100 µM
MCF7 breast
  TGI: > 100 µM
MDA-MB-231 breast
  TGI: > 100 µM
MDA-MB-435
  TGI: > 100 µM
MDA-N
  TGI: > 100 µM
MOLT-4 leukemia
  TGI: > 100 µM
NCI-H226 lung
  TGI: > 100 µM
NCI-H23 lung
  TGI: > 100 µM
NCI-H460 lung
  TGI: > 100 µM
NCI-H522 lung
  TGI: > 100 µM
NCI/ADR-RES ovarian
  TGI: > 100 µM
OVCAR-3 ovarian
  TGI: > 100 µM
OVCAR-4 ovarian
  TGI: > 100 µM
OVCAR-5 ovarian
  TGI: > 100 µM
OVCAR-8 ovarian
  TGI: > 100 µM
PC-3 prostate
  TGI: > 100 µM
RPMI-8226 leukemia
  TGI: > 100 µM
RXF 393 renal
  TGI: > 100 µM
SF-268 CNS
  TGI: > 100 µM
SF-295 CNS
  TGI: > 100 µM
SK-MEL-2 melanoma
  TGI: > 100 µM
SK-MEL-28 melanoma
  TGI: > 100 µM
SK-MEL-5 melanoma
  TGI: > 100 µM
SK-OV-3 ovarian
  TGI: > 100 µM
SNB-19 CNS
  TGI: > 100 µM
SNB-75 CNS
  TGI: > 100 µM
SW-620 colon
  TGI: > 100 µM
TK-10 renal
  TGI: > 100 µM
U251 CNS
  TGI: > 100 µM
UACC-257 melanoma
  TGI: > 100 µM
UACC-62 melanoma
  TGI: > 100 µM
UO-31 renal
  TGI: > 100 µM
